The values that follow are results of earlier work, collected in PubChem BioAssay AID1259409 (Chemical Carcinogenesis Research Information System (CCRIS), 2018).

Where a SMILES comes first, the peptide text is derived from it. Bridges are numbered along the chain shown (N, C = ends). [ ]: non-standard residue; d: D form.

The data set deals with rodent chemically induced tumor inhibition, incidence and multiplicity. Description: CCRIS tumor inhibitor studies.

Turning to `CS(=O)CCCCN=C=S` (centres undefined), the “tumour outcome (control, treated, inhibition, significance)” value reads like this: (Carcinogen: 4-(METHYLNITROSAMINO)-1-(3-PYRIDYL)-1-BUTANONE (NNK) [64091-91-4], Dose [Inhibitor]: 1.5 UM/G DIET, BEGINNING 13 WKS AFTER CARCINOGEN/PROMOTER TREATMENT (STUDY DURATION: 42 WK), Route [Inhibitor]: DIET, Species: MOUSE, Strain/Sex: A/J/FEMALE (39,?)/(20,?), Target Tissue: Type of Lesion: LUNG: ADENOCARCINOMA, Dose [Carcinogen]: 3 µM WEEKLY FOR 8 DOSES, Promoter: BENZO[A]PYRENE [50-32-8]) 42%, 20%, 52%, not significant; (Carcinogen: 4-(METHYLNITROSAMINO)-1-(3-PYRIDYL)-1-BUTANONE (NNK) [64091-91-4], Dose [Inhibitor]: 1.5 UM/G DIET, BEGINNING 13 WKS AFTER CARCINOGEN/PROMOTER TREATMENT (STUDY DURATION: 42 WK), Route [Inhibitor]: DIET, Species: MOUSE, Strain/Sex: A/J/FEMALE (39,?)/(20,?), Target Tissue: Type of Lesion: LUNG: ADENOMA, Dose [Carcinogen]: 3 µM WEEKLY FOR 8 DOSES, Promoter: BENZO[A]PYRENE [50-32-8]) 100%, 100%, 0%, not significant; (Carcinogen: 4-(METHYLNITROSAMINO)-1-(3-PYRIDYL)-1-BUTANONE (NNK) [64091-91-4], Dose [Inhibitor]: 3 UM/G DIET, BEGINNING 13 WKS AFTER CARCINOGEN/PROMOTER TREATMENT (STUDY DURATION: 42 WK), Route [Inhibitor]: DIET, Species: MOUSE, Strain/Sex: A/J/FEMALE (39,?)(32,?), Target Tissue: Type of Lesion: LUNG: ADENOCARCINOMA, Dose [Carcinogen]: 3 µM WEEKLY FOR 8 DOSES, Promoter: BENZO[A]PYRENE [50-32-8]) 42%, 28%, 33%, not significant; (Carcinogen: 4-(METHYLNITROSAMINO)-1-(3-PYRIDYL)-1-BUTANONE (NNK) [64091-91-4], Dose [Inhibitor]: 3 UM/G DIET, BEGINNING 13 WKS AFTER CARCINOGEN/PROMOTER TREATMENT (STUDY DURATION: 42 WK), Route [Inhibitor]: DIET, Species: MOUSE, Strain/Sex: A/J/FEMALE (39,?)/(32,?), Target Tissue: Type of Lesion: LUNG: ADENOMA, Dose [Carcinogen]: 3 µM WEEKLY FOR 8 DOSES, Promoter: BENZO[A]PYRENE [50-32-8]) 100%, 93%, 7%, not significant; (Carcinogen: 7,12-DIMETHYLBENZ[A]ANTHRACENE, 57-97-6, Dose [Inhibitor]: 0, 75 UMOL/D IN 0.5 ML EMULPHOR EL-620 FOR 5 CONSECUTIVE DAYS BEGINNING AT 47 D OF AGE (STUDY DURATION: 155 D), Route [Inhibitor]: GAVAGE, Species: RAT, Strain/Sex: SPRAGUE-DAWLEY/FEMALE, Target Tissue: Type of Lesion: MAMMARY GLAND: TUMOR, Dose [Carcinogen]: 8 MG IN 1 ML SESAME OIL ONCE AT 50 D OF AGE, Promoter: NONE USED) 17/25 (68%), 7/20 (35%), 49%, p<0.05; (Carcinogen: 7,12-DIMETHYLBENZ[A]ANTHRACENE, 57-97-6, Dose [Inhibitor]: 0, 150 UMOL/D IN 0.5 ML EMULPHOR EL-620 FOR 5 CONSECUTIVE DAYS BEGINNING AT 47 D OF AGE (STUDY DURATION: 155 D), Route [Inhibitor]: GAVAGE, Species: RAT, Strain/Sex: SPRAGUE-DAWLEY/FEMALE, Target Tissue: Type of Lesion: MAMMARY GLAND: TUMOR, Dose [Carcinogen]: 8 MG IN 1 ML SESAME OIL ONCE AT 50 D OF AGE, Promoter: NONE USED) 17/25 (68%), 5/19 (26%), 62%, p<0.05.

`CC(C)[C@@H]1NC(=O)[C@H](CCCCN)NC(=O)[C@@H](Cc2c[nH]c3ccccc23)NC(=O)[C@H](Cc2ccc(O)cc2)NC(=O)[C@@H](NC(=O)[C@H](N)Cc2ccccc2)CSSC[C@@H](C(=O)N[C@@H](Cc2c[nH]c3ccccc23)C(N)=O)NC1=O` (H-[dF]CY[dW]KVCW-NH2; disulfide 2-7): the “tumour outcome (control, treated, inhibition, significance)” value (Carcinogen: N-BUTYL-N-(4-HYDROXYBUTYL)NITROSAMINE, 3817-11-6, Dose [Inhibitor]: 0, 50 UG/RAT/D FOR 12 WK BEGINNING POST CARCINOGEN TREATMENT (STUDY DURATION: 17 WK), Route [Inhibitor]: SUBCUTANEOUS, Species: RAT, Strain/Sex: F344/FEMALE, Target Tissue: Type of Lesion: URINARY BLADDER: CARCINOMA IN SITU, Dose [Carcinogen]: 0.05% IN DRINKING WATER FOR 4 WK, Promoter: MITOMYCIN C, 50-07-7) was 10/40 (25%), 1/20 (5%), 80%, p<0.001; the “tumour outcome (control, treated, inhibition, significance)” value (Carcinogen: N-BUTYL-N-(4-HYDROXYBUTYL)NITROSAMINE, 3817-11-6, Dose [Inhibitor]: 0, 50 UG/RAT/D FOR 12 WK BEGINNING POST CARCINOGEN TREATMENT (STUDY DURATION: 17 WK), Route [Inhibitor]: SUBCUTANEOUS, Species: RAT, Strain/Sex: F344/FEMALE, Target Tissue: Type of Lesion: URINARY BLADDER: INVASIVE CARCINOMA, Dose [Carcinogen]: 0.05% IN DRINKING WATER FOR 4 WK, Promoter: MITOMYCIN C, 50-07-7) is given as 12/40 (30%), 0/20 (0%), 100%, not calculated; the “tumour outcome (control, treated, inhibition, significance)” value (Carcinogen: N-BUTYL-N-(4-HYDROXYBUTYL)NITROSAMINE, 3817-11-6, Dose [Inhibitor]: 0, 50 UG/RAT/D FOR 12 WK BEGINNING POST CARCINOGEN TREATMENT (STUDY DURATION: 17 WK), Route [Inhibitor]: SUBCUTANEOUS, Species: RAT, Strain/Sex: F344/FEMALE, Target Tissue: Type of Lesion: URINARY BLADDER: PAPILLOMA, Dose [Carcinogen]: 0.05% IN DRINKING WATER FOR 4 WK, Promoter: MITOMYCIN C, 50-07-7) is listed as 20/40 (50%), 11/20 (55%), -10%, not significant; the “tumour outcome (control, treated, inhibition, significance)” value (Carcinogen: N-NITROSOBIS(2-OXOPROPYL)AMINE, 60599-38-4, Dose [Inhibitor]: 0, 35 UG/D FROM OSMOTIC PUMP FOR 2 MO, Route [Inhibitor]: SUBCUTANEOUS IMPLANT, Species: HAMSTER, Strain/Sex: SYRIAN/FEMALE, Target Tissue: Type of Lesion: PANCREAS: ADENOCARCINOMA, Promoter: NONE USED) is 12/12 (100%), 6/11 (55%), 45%, not calculated.

On to `C#C[C@]1(O)CC[C@H]2[C@@H]3CCc4cc(O)ccc4[C@H]3[C@H](OC)C[C@@]21C`, for which the “tumour outcome (control, treated, inhibition, significance)” value runs as follows: (Carcinogen: N-METHYL-N-NITROSOUREA, 684-93-5, Dose [Inhibitor]: 0, 24 UG 3/WK FOR THE DURATION OF STUDY BEGINNING 7 D PRIOR TO CARCINOGEN DOSE (STUDY DURATION: 187 D), Route [Inhibitor]: SUBCUTANEOUS, Species: RAT, Strain/Sex: SPRAGUE-DAWLEY/FEMALE, Target Tissue: Type of Lesion: MAMMARY GLAND: TUMOR, Dose [Carcinogen]: 50 MG/KG BW ONCE, Promoter: NONE USED) 100%, 90%, 10%, not significant; (Carcinogen: N-METHYL-N-NITROSOUREA, 684-93-5, Dose [Inhibitor]: 10 UG DAILY STARTING SIMULTANEOUSLY WITH CARCINOGEN TREATMENT AND CONTINUING FOR DURATION OF STUDY (STUDY DURATION: 145, Route [Inhibitor]: INJECTION, Species: RAT, Strain/Sex: SPRAGUE-DAWLEY/FEMALE, Target Tissue: Type of Lesion: MAMMARY GLAND: TUMOR, Dose [Carcinogen]: 5 MG/100 G BW AT 0, 4 AND 8 WK OF STUDY, Promoter: NONE USED) 86%, 54%, 37%, not calculated.

In the case of `O=C1C[C@@H](c2ccc(O)cc2)Oc2cc(O)cc(O)c21`, the “tumour outcome (control, treated, inhibition, significance)” value (Carcinogen: 7,12-DIMETHYLBENZ[A]ANTHRACENE, 57-97-6, Dose [Inhibitor]: 100 UG IN 0.2 ML ACETONE ONCE 5 MIN BEFORE CARCINOGEN TREATMENT (STUDY DURATION: 31 WK), Route [Inhibitor]: DERMAL, Species: MOUSE, Strain/Sex: CD-1/FEMALE, Target Tissue: Type of Lesion: SKIN: PAPILLOMA, Dose [Carcinogen]: 10 NMOL IN 0.2 ML ACETONE ONCE, Promoter: 12-O-TETRADECANOYLPHORBOL-13-ACETATE, 16561-29-8) is 87%, 94%, -8%, not calculated. Besides, the outcome (Carcinogen: N-Methyl-N'-nitro-N-nitrosoguanidine (70-25-7) and saturated sodium chloride (7647-14-5), Dose [Inhibitor]: 200 mg/kg bw dissolved in corn oil for 20 wk from first dose of MNNG + NaCl and from the 6th wk of MNNG + NaCl induction, Route [Inhibitor]: Gavage, Species: Rat, Strain/Sex: Wistar/Male, Target Tissue: Type of Lesion: Stomach, Dose [Carcinogen]: 200 mg/kg at days 0 and 14 (MNNG) and 1 ml/rat 3 days for 4 wk (NaCl); study duration 20 wk), Promoter: None) is listed as 0 (0) in negative controls; 6 (100) in positive controls; 0 (0) simultaneous tre.
